This assay has as its system P. falciparum (New Guinean isolate D10). The assay is described as follows: Parasitemia assay in P. falciparum infected human erythrocytes. Type of assay: cell-based. As for the experimental part: P. falciparum (New Guinean isolate D10) cultures were grown and maintained substantially as described in Trager et al. (1976) Science 193, 673-675. Human type O+ blood was obtained from healthy donors. Magainin 2 (Matsuzaki et al., 1995, supra) was made by solid phase peptide synthesis. Parasitemia assays were performed substantially as described in Pasvol et al (1978) Ann Trop Med Parasitol 72, 87-92 and Magowan et al. (1995) Blood 86, 3196-3204. […] Each group was done in triplicate and 7,500 erythrocytes were counted for each data point. […]
FIG. 1 provides a graphical representation of the data showing the inhibition of parasitemia in infected human erythrocytes over the foregoing time courses and concentrations. In the figure, ● represents data points for the untreated cells, ▪ represents data points for cells treated at 10 uM, ▴ at 25 uM, and ▾ at 50 uM.

For Magainin 2, the parasitemia (10 uM magainin 2, Day 1) was determined as 0.92; the parasitemia (10 uM magainin 2, Day 2) came out at 1.88; the parasitemia (10 uM magainin 2, Day 3) amounted to 2.40; the parasitemia (10 uM magainin 2, Day 4) worked out at 4.52; the parasitemia (25 uM magainin 2, Day 1) is listed as 0.41; the parasitemia (25 uM magainin 2, Day 2) turned out to be 1.88. Besides, the parasitemia by setting is: (25 uM magainin 2, Day 3) 1.61; (25 uM magainin 2, Day 4) 3.68; (50 uM magainin 2, Day 1) 0.52; (50 uM magainin 2, Day 2) 1.43; (50 uM magainin 2, Day 3) 1.96; (50 uM magainin 2, Day 4) 2.87. In addition, for the setting “10, 25 and 50 uM, over the time course”, the “inhibition of parasitemia in infected human erythrocytes” value was “dose and time dependent inhibitions of parasitemia”. The “selective lysis of infected versus non-infected erythrocytes” value (P. falciparum infected blood-borne human erythrocytes, Examples 1 and 2) is on record as “particular effective at selectively lysing P. falciparum infected blood-borne human erythrocytes as compared with non-infected cells”.
